Test system: rabbit platelets
Assay: ADP induced platelet aggregation in vitro, turbidimetric method (Born and Cross, modified)
Type: cell-based
Conditions: percent of ADP controls, rabbit PRP
Source text: For the relevant study on the platelet aggregation "in vitro" herein, the turbidimetric method initially described by Born and Cross (J. Physiol. 168, 178, 1963) has been followed with some changes, principally due to the use of rabbit platelets, rather than human or pig platelets, as reported in their original work: (1) Preparation of platelet-rich plasma (PRP) and platelet-poor plasma (PPP) Male rabbits weighing 2.5-3.5 kg were used. Fifty four ml of blood were withdrawn from the carotid artery of rabbits anaesthetized with ether. The blood was gently mixed with six ml of 3.8% trisodium citrate as anticoagulant. The PRP was obtained by centrifugation at 400 g for 10 minutes. The concentration of the platelets was adjusted to 250,000/mm^3 by diluting the PRP with PPP prepared by a second centrifugation of the blood samples for about 10 minutes at 2000 g. The aggregation experiments were in general performed within 1-2 hr. from the time of blood collection. (2) ADP induced platelet aggregation In the cuvette of the aggregometer, reagents were added as follows: 0.8 ml PRP, 0.2 ml drug solution or saline, and 0.2 ml ADP (adenosine diphosphate) at the molar concentration of 2.2 × 10^-4. The turbidimetry was checked after 11/2, 3 and 6 minutes. The inhibition of the aggregation is given in the table as percent of ADP controls at these three times.

[1] = 1 minute and 30 seconds after ADP, 50 γ
[2] = 1 minute and 30 seconds after ADP, 100 γ
[3] = 1 minute and 30 seconds after ADP, 200 γ

Row | SMILES | percent inhibition of platelet aggregation [1] [%] | percent inhibition of platelet aggregation [2] [%] | percent inhibition of platelet aggregation [3] [%] | percent inhibition of platelet aggregation (3 minutes after ADP, 50 γ) [%] | percent inhibition of platelet aggregation (3 minutes after ADP, 100 γ) [%] | percent inhibition of platelet aggregation (3 minutes after ADP, 200 γ) [%] | percent inhibition of platelet aggregation (6 minutes after ADP, 50 γ) [%] | percent inhibition of platelet aggregation (6 minutes after ADP, 100 γ) [%] | percent inhibition of platelet aggregation (6 minutes after ADP, 200 γ) [%]
1 | CO[C@]12C[C@@H](CNc3cc(C)cc(C)n3)CN(C)[C@@H]1Cc1cn(C)c3cccc2c13 [compound 897, N-(4',6'-dimethyl-2'-pyridyl)-10α-methoxy-1,6-dimethylergoline-8β-methanamine] | 31 | 62 | 89 | 22 | 51 | 91 | 25 | 56 | 92
2 | CO[C@]12C[C@@H](CNc3ccc(Br)cn3)CN(C)[C@@H]1Cc1cn(C)c3cccc2c13 [compound 893, N-(5'-bromo-2'-pyridyl)-10α-methoxy-1,6-dimethylergoline-8β-methanamine] | 31 | 58 | 63 | 14 | 46 | 69 | 7 | 52 | 71
3 | CO[C@]12C[C@@H](COC(=O)c3cncc(Br)c3)CN(C)[C@@H]1Cc1cn(C)c3cccc2c13 [355/347, 10-methoxy-1,6-dimethyl-8β-methanol-5-bromonicotinate, reference compound] | 11 | 24 | 40 | 12 | 21 | 50 | 22 | 33 | 60
4 | CO[C@]12C[C@@H](CNc3ccccn3)CN(C)[C@@H]1Cc1cn(C)c3cccc2c13 [compound 925, N-(2'-pyridyl)-10α-methoxy-1,6-dimethylergoline-8β-methanamine] | 16 | 50 | 100 | 21 | 56 | 100 | 30 | 65 | 100
5 | CO[C@]12C[C@@H](CSc3ccc([N+](=O)[O-])cn3)CN(C)[C@@H]1Cc1cn(C)c3cccc2c13 [compound 926, 5'-Nitro-2'-pyridyl-10α-methoxy-1,6-dimethylergoline-8β-methyl sulphide] | 25 | 61 | 100 | 13 | 55 | 100 | 17 | 65 | 100
6 | CO[C@]12C[C@@H](CNc3cc(C)ccn3)CN(C)[C@@H]1Cc1cn(C)c3cccc2c13 [compound 894, N-(4'-methyl-2'-pyridyl)-10α-methoxy-1,6-dimethylergoline-8β-methanamine] | 22 | 61 | 100 | 22 | 61 | 100 | 29 | 71 | 100
